# According to US20250066368A1, “DNA POLYMERASE THETA INHIBITOR AND USE THEREOF” (SHANGHAI APEIRON THERAPEUTICS COMPANY LIMITED, priority 2021, published 2025):
# Molecular target: Polθ polymerase (Homo sapiens (Human), UniProt O75417)
# Assay: Polθ polymerase activity assay (PicoGreen method)
# Type: biochemical
# Details: His-TEV-SUMO-tagged Polθ protein (amino acids 1792-2590), PicoGreen fluorescence, in vitro
# Description: The ability of compounds to inhibit Pol 0 polymerase activity was determined by the PicoGreen method in vitro. The His-TEV-SUMO-tagged Polθ protein (amino acids 1792-2590) expressed in E. coli was purified and stored in aliquots at -80° C. […] Test compounds were diluted in 100% DMSO and diluted three-fold into 10 concentration points in a dilution plate (Greiner-781280) using Bravo (Agilent) according to concentration requirements. The compounds diluted in DMSO were then diluted 20-fold in the assay buffer using Bravo. Further, 2 μl of diluted compounds were transferred to the assay plate (Corning-4512) using Bravo. The purified Pol 0 enzyme and primers ((primer strand: […] ID NO: 1):(template strand: […] A mixture containing 10 mM EDTA, 25 mM Tris pH 7.5, and a 1:200 diluted PicoGreen dye (Invitrogen-[…] the reaction. After 30 min of reaction at room temperature in the dark, fluorescence values were read on EnVision 2105 (PerkinElmer) using the Ex480 nm Em520 nm program, and the raw data was analyzed using XLfit to generate IC50 values. The results are shown in the table below.
# Polθ polymerase, sequence (O75417 1792-2590): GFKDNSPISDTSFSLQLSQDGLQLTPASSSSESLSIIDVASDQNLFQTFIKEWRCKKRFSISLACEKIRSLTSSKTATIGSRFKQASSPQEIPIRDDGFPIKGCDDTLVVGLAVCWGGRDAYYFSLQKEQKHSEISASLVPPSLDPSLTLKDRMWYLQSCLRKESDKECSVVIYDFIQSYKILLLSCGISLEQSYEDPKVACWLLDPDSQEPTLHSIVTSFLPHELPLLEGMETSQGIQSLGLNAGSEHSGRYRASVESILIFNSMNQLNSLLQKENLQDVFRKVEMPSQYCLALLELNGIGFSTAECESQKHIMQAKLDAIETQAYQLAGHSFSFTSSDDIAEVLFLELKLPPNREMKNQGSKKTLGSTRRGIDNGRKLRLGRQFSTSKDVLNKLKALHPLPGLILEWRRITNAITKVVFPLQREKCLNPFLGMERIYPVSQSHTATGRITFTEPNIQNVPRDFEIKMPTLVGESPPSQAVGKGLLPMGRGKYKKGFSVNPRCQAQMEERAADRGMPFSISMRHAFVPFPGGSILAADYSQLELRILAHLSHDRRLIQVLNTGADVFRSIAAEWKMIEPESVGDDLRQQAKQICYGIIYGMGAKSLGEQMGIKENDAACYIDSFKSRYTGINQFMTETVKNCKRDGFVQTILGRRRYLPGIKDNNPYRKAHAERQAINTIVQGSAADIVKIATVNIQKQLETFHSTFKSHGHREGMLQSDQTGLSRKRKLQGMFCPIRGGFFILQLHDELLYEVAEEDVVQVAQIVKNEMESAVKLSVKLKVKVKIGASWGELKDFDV
row,SMILES,IC50 [nM]
1,"CN(C(=O)[C@@H]1CNC(=O)N1c1cc(C(F)(F)F)c2c(n1)CCCC2)c1ccc(F)c(Cl)c1F [Compound 5, (S)—N-(3-chloro-2,4-difluorophenyl)-N-methyl-2-oxo-3-(4-(trifluoromethyl)-5,6,7,8-tetrahydroquinolin-2-yl)imidazolidine-4-carboxamide]",500 to 5000
2,"CN(C(=O)[C@@H]1CNC(=O)N1c1cc(C(F)(F)F)c2c(n1)CCC2=O)c1ccc(F)c(Cl)c1F [Compound 3, (S)—N-(3-chloro-2,4-difluorophenyl)-N-methyl-2-oxo-3-(5-oxo-4-(trifluoromethyl)-6,7-dihydro-5H-cyclopenta[b]pyridin-2-yl)imidazolidine-4-carboxamide]",> 5000
3,"CN(C(=O)[C@@H]1CNC(=O)N1c1nccn2ccnc12)c1ccc(F)c(Cl)c1F [Compound 41, (S)—N-(3-chloro-2,4-difluorophenyl)-3-(imidazo[1,2-a]pyrazin-8-yl)-N-methyl-2-oxoimidazolidine-4-carboxamide]",> 5000
4,CN(C(=O)[C@@H]1CNC(=O)N1c1cc(C(F)(F)F)c2c(n1)CC[C@H]2O)c1ccc(F)c(Cl)c1F [Compound 6a],500 to 5000
5,"CN(C(=O)[C@@H]1CNC(=O)N1c1cc(C(F)(F)F)c2c(ncn2C)n1)c1ccc(F)c(Cl)c1F [Compound 10, (S)—N-(3-chloro-2,4-difluorophenyl)-N-methyl-3-(1-methyl-7-(trifluoromethyl)-1H-imidazo[4,5-b]pyridin-5-yl)-2-oxoimidazolidine-4-carboxamide]",> 5000
6,"CN(C(=O)[C@@H]1CNC(=O)N1c1cc(SC(F)(F)F)c2ncsc2n1)c1ccc(F)c(Cl)c1F [Compound 44, (S)—N-(3-chloro-2,4-difluorophenyl)-N-methyl-2-oxo-3-(7-((trifluoromethyl)thio)thiazolo[5,4-b]pyridin-5-yl)imidazolidine-4-carboxamide]",50 to 500
7,"CN(C(=O)[C@@H]1CNC(=O)N1c1cc(C(F)(F)F)c2c(n1)CCC2(F)F)c1ccc(F)c(Cl)c1F [Compound 11, (S)—N-(3-chloro-2,4-difluorophenyl)-3-(5,5-difluoro-4-(trifluoromethyl)-6,7-dihydro-5H-cyclopentadienyl[b]pyridin-2-yl)-N-methyl-2-oxoimidazolidine-4-carboxamide]",50 to 500
8,"CN(C(=O)[C@@H]1CNC(=O)N1c1cc(C(F)(F)F)c2ccccc2n1)c1ccc(F)c(Cl)c1F [Compound 17, (S)—N-(3-chloro-2,4-difluorophenyl)-N-methyl-2-oxo-3-(4-(trifluoromethyl)quinolin-2-yl)imidazolidine-4-carboxamide]",50 to 500
9,"CN(C(=O)[C@@H]1CNC(=O)N1c1cc(C(F)(F)F)c2c(n1)OCC2)c1ccc(F)c(Cl)c1F [Compound 20, (S)—N-(3-chloro-2,4-difluorophenyl)-N-methyl-2-oxo-3-(4-(trifluoromethyl)-2,3-dihydrofuro[2,3-b]pyridin-6-yl)imidazolidine-4-carboxamide]",50 to 500
10,CN(C(=O)[C@@H]1CNC(=O)N1c1cc(C(F)(F)F)c2c(n1)CC[C@]2(C)O)c1ccc(F)c(Cl)c1F [Compound 8a],500 to 5000
11,"CN(C(=O)[C@@H]1CNC(=O)N1c1ccc2c(n1)CCC2)c1ccc(F)c(Cl)c1F [Compound 2, (S)—N-(3-chloro-2,4-difluorophenyl)-3-(6,7-dihydro-5H-cyclopenta[b]pyridin-2-yl)-N-methyl-2-oxoimidazolidine-4-carboxamide]",500 to 5000
12,"CSc1cc(N2C(=O)NC[C@H]2C(=O)N(C)c2ccc(F)c(Cl)c2F)nc2scnc12 [Compound 43, (S)—N-(3-chloro-2,4-difluorophenyl)-N-methyl-3-(7-(methylthio)thiazolo[5,4-b]pyridin-5-yl)-2-oxoimidazolidine-4-carboxamide]",50 to 500
13,"CN(C(=O)[C@@H]1CNC(=O)N1c1cc(C(F)(F)F)c2ccoc2n1)c1ccc(F)c(Cl)c1F [Compound 15, (S)—N-(3-chloro-2,4-difluorophenyl)-N-methyl-2-oxo-3-(4-(trifluoromethyl)furo[2,3-b]pyridin-6-yl)imidazolidine-4-carboxamide]",50 to 500
14,"CN(C(=O)[C@@H]1CNC(=O)N1c1cc(C(F)(F)F)c2sccc2n1)c1ccc(F)c(Cl)c1F [Compound 4, (S)—N-(3-chloro-2,4-difluorophenyl)-N-methyl-2-oxo-3-(7-(trifluoromethyl)thieno[3,2-b]pyridin-5-yl)imidazoline-4-carboxamide]",50 to 500

# More lines, now with the values ahead:
row,IC50 [nM],SMILES
1,≤ 50,"CN(C(=O)[C@@H]1CNC(=O)N1c1cc(C(F)(F)F)c2c(n1)C(=O)CC2)c1ccc(F)c(Cl)c1F [Compound 13, (S)—N-(3-chloro-2,4-difluorophenyl)-N-methyl-2-oxo-3-(7-oxo-4-(trifluoromethyl)-6,7-dihydro-5H-cyclopenta[b]pyridin-2-yl)imidazolidine-4-carboxamide]"
2,50 to 500,"CN(C(=O)[C@@H]1CNC(=O)N1c1cc(C(F)(F)F)c2ccn(C)c2n1)c1ccc(F)c(Cl)c1F [Compound 18, (S)—N-(3-chloro-2,4-difluorophenyl)-N-methyl-3-(1-methyl-4-(trifluoromethyl)-1H-pyrrolo[2,3-b]pyridin-6-yl)-2-oxoimidazolidine-4-carboxamide]"
3,≤ 50,"CN(C(=O)[C@@H]1CNC(=O)N1c1cc(C2CC2)c2ncsc2n1)c1ccc(F)c(Cl)c1F [Compound 31, [(4S)-3-(7-cyclopropyl (1,3-thiazolo[4,5-e]pyridin-5-yl))-2-oxoimidazolidin-4-yl]-N-(3-chloro-2,4-difluorophenyl)-N-methylformamide]"
4,≤ 50,"O=C1OC[C@@H](c2nc(F)cn2-c2ccc(F)c(Cl)c2)N1c1cc(C(F)(F)F)c2ccsc2n1 [Compound 30, (R)-4-(1-(3-chloro-4-fluorophenyl)-4-fluoro-1H-imidazol-2-yl)-3-(4-(trifluoromethyl)thieno[2,3-b]pyridin-6-yl)oxazolidin-2-one]"
5,≤ 50,"CN(C(=O)[C@@H]1CNC(=O)N1c1cc(C(F)(F)F)c2c(n1)CCC2)c1ccc(F)c(Cl)c1F [Compound 1, (S)—N-(3-chloro-2,4-difluorophenyl)-N-methyl-2-oxo-3-(4-(trifluoromethyl)-6,7-dihydro-5H-cyclopenta[b]pyridin-2-yl)imidazolidine-4-carboxamide]"
6,≤ 50,"CN(C(=O)[C@@H]1CNC(=O)N1c1cc(C(F)(F)F)n2cccc2n1)c1ccc(F)c(Cl)c1F [Compound 22, (S)—N-(3-chloro-2,4-difluorophenyl)-N-methyl-2-oxo-3-(4-(trifluoromethyl)pyrrolo[1,2-a]pyrimidin-2-yl)imidazolidine-4-carboxamide]"
7,≤ 50,"CN(C(=O)[C@@H]1CNC(=O)N1c1cc(C(F)(F)F)c2c(n1)CC=C2)c1ccc(F)c(Cl)c1F (single isomer, unassigned) [Compound 9b]"
8,≤ 50,"CN(C(=O)[C@@H]1CNC(=O)N1c1cc(C(F)(F)F)c2c(n1)CC=C2)c1ccc(F)c(Cl)c1F (single isomer, unassigned) [Compound 9a]"
9,≤ 50,"CN(C(=O)[C@@H]1CNC(=O)N1c1cc(C(F)(F)F)c2ccsc2n1)c1ccc(F)c(Cl)c1F [Compound 14, (S)—N-(3-chloro-2,4-difluorophenyl)-N-methyl-2-oxo-3-(4-(trifluoromethyl)thieno[2,3-b]pyridin-6-yl)imidazolidine-4-carboxamide]"
10,≤ 50,"CN(C(=O)[C@@H]1CNC(=O)N1c1cc(C(F)(F)F)c2cccn2n1)c1ccc(F)c(Cl)c1F [Compound 27, (S)—N-(3-chloro-2,4-difluorophenyl)-N-methyl-2-oxo-3-(4-(trifluoromethyl)pyrrolo[1,2-b]pyridazin-2-yl)imidazolidine-4-carboxamide]"
11,≤ 50,CN(C(=O)[C@@H]1CNC(=O)N1c1cc(C(F)(F)F)c2cc[se]c2n1)c1ccc(F)c(Cl)c1F [Compound 33]
12,≤ 50,"CN(C(=O)[C@@H]1CNC(=O)N1c1cc(C(F)(F)F)c2c(n1)C(F)(F)CC2)c1ccc(F)c(Cl)c1F [Compound 12, (S)—N-(3-chloro-2,4-difluorophenyl)-3-(7,7-difluoro-4-(trifluoromethyl)-6,7-dihydro-5H-cyclopenta[b]pyridin-2-yl)-N-methyl-2-oxoimidazolidine-4-carboxamide]"
